Tests used:
[1] = DRUGMATRIX: GABAA, Flunitrazepam, Central radioligand binding (ligand: [3H] Flunitrazepam); assay type: cell membranes, Rattus norvegicus, Wistar, Brain, Membrane; conditions: Not Active = under 50% inhibition at 10 µM
[2] = DRUGMATRIX: GABAA, Muscimol, Central radioligand binding (ligand: [3H] Muscimol); assay type: cell membranes, Rattus norvegicus, Wistar, Brain, Membrane; conditions: Not Active = under 50% inhibition at 10 µM
[3] = DRUGMATRIX: Glutamate, Kainate radioligand binding (ligand: [3H] Kainic acid); assay type: cell membranes, Rattus norvegicus, Wistar, Brain, Membrane; conditions: Not Active = under 50% inhibition at 10 µM
Glycine receptor = Glycine receptor (Rattus norvegicus, UniProt P22771+P24524+P07727+P20781); assay type: cell membranes, Wistar, Spinal cord, Membrane; further: in other assays of this panel Not Active means under 50% inhibition at 10 µM
Cytochrome P450 2A6 = target: T1, Cytochrome P450 2A6 (Homo sapiens, UniProt P11509); conditions: bti-tn-5b1-4; further: in other assays of this panel Not Active means under 50% inhibition at 10 µM
T1 sequence (P11509 whole entry): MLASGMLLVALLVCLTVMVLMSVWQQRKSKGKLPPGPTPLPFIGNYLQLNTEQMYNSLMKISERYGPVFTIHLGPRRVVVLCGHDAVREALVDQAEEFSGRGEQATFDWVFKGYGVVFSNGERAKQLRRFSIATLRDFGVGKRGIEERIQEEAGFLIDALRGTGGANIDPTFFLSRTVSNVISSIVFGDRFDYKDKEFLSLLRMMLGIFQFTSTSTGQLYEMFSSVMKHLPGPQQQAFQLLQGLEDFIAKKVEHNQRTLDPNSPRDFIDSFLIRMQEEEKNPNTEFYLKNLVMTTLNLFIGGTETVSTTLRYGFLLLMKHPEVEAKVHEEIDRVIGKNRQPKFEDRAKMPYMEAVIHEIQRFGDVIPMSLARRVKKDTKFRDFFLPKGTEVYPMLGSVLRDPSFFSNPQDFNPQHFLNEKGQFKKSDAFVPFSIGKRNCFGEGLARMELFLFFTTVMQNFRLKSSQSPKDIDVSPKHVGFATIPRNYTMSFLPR

[4] = target: Protein phosphatase 3 catalytic subunit alpha (Homo sapiens, UniProt Q08209); design: species or system Escherichia coli;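 further: inhibition of calcineurin (PP2B) enzyme activity, measured with DiFMUP as the substrate; in other assays of this panel Not Active means under 50% inhibition at 10 µM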
Cytochrome P450 2D6 = Cytochrome P450 2D6 (Homo sapiens, UniProt P10635); conditions: bti-tn-5b1-4; further: in other assays of this panel Not Active means under 50% inhibition at 10 µM
Sequence of Cytochrome P450 2D6 (P10635 whole entry): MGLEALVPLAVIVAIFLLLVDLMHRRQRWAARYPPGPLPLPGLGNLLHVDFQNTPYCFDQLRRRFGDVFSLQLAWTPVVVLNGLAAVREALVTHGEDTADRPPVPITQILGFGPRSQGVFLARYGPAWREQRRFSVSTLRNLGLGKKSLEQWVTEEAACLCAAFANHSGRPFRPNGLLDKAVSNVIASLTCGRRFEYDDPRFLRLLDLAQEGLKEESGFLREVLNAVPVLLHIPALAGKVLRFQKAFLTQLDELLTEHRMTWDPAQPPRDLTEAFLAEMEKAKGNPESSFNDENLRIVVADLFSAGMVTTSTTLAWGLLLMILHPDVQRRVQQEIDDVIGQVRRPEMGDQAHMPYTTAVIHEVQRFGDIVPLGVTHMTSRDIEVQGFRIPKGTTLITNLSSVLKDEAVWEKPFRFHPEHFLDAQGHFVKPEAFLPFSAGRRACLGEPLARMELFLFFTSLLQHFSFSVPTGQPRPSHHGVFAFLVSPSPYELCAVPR

[5] = DRUGMATRIX: Glutamate, AMPA radioligand binding (ligand: [3H] AMPA); assay type: cell membranes, Rattus norvegicus, Wistar, Cerebral cortex, Membrane; conditions: Not Active = under 50% inhibition at 10 µM
D(1A) dopamine receptor = D(1A) dopamine receptor (Homo sapiens, UniProt P21728); assay: DRUGMATRIX: Dopamine D1 radioligand binding (ligand: [3H] SCH-23390); assay type: cell membranes, CHO, Membrane; conditions: cho; Not Active = under 50% inhibition at 10 µM
Sequence of D(1A) dopamine receptor (P21728 whole entry): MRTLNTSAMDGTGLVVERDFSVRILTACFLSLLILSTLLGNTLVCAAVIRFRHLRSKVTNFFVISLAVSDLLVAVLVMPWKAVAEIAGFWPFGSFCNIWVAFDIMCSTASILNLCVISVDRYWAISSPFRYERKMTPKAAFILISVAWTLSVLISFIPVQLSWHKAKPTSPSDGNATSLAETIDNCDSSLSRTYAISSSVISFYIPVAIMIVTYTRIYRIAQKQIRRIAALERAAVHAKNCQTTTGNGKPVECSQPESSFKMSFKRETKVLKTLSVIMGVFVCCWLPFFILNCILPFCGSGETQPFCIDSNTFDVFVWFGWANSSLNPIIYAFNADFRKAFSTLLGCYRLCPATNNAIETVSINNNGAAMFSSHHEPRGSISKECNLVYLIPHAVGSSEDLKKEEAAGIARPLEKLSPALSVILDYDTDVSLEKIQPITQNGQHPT

Compound | IC50 [1] | Ki [1] | IC50 [2] | Ki [2] | IC50 [3] | Ki [3] | IC50 (Glycine receptor) | IC50 (Cytochrome P450 2A6) | Ki (Cytochrome P450 2A6) | IC50 [4] | IC50 (Cytochrome P450 2D6) | Ki (Cytochrome P450 2D6) | IC50 [5] | Ki [5] | IC50 (D(1A) dopamine receptor) | Ki (Glycine receptor) | Ki [4] | Ki (D(1A) dopamine receptor)
CCOC(N)=O | Not Active | Not Active | Not Active | Not Active | Not Active | Not Active | Not Active | Not Active | Not Active | Not Active | Not Active | Not Active | Not Active | Not Active | Not Active |  |  | 
COc1ccc(CN2CCNCC2)c(OC)c1OC [TRIMETAZIDINE] | Not Active | Not Active | Not Active | Not Active | Not Active | Not Active | Not Active |  |  | Not Active |  |  | Not Active | Not Active | Not Active |  |  | 
CC(=O)O[C@H]1C[C@@H]2CC[C@@H]3[C@H](CC[C@@]4(C)[C@H]3C[C@H]([N+]3(C)CCCCC3)[C@@H]4OC(C)=O)[C@@]2(C)C[C@@H]1N1CCCCC1.[Br-] [VECURONIUM BROMIDE] | Not Active | Not Active | Not Active | Not Active | Not Active | Not Active | Not Active | Not Active | Not Active | Not Active | Not Active | Not Active | Not Active | Not Active | Not Active |  |  | 
C[C@@H]1C[C@H]2[C@@H]3CCC4=CC(=O)C=C[C@]4(C)C3=CC[C@]2(C)[C@H]1C(=O)CN1CCN(c2cc(N3CCCC3)nc(N3CCCC3)n2)CC1 [TIRILAZAD] | Not Active | Not Active | Not Active | Not Active | Not Active | Not Active | Not Active | Not Active | Not Active | Not Active | Not Active | Not Active | Not Active | Not Active | Not Active |  |  | 
CC(C)OC(=O)C(C)(C)Oc1ccc(C(=O)c2ccc(Cl)cc2)cc1 [FENOFIBRATE] |  |  |  |  |  |  | Not Active | Not Active | Not Active | Not Active |  |  |  |  |  |  |  | 
C[C@@H](O)[C@H]1C(=O)N2C(C(=O)O)=C(S[C@@H]3CN[C@H](C(=O)N(C)C)C3)[C@H](C)[C@H]12 [MEROPENEM] | Not Active | Not Active | Not Active | Not Active | Not Active | Not Active | Not Active | Not Active | Not Active | Not Active | Not Active | Not Active | Not Active | Not Active | Not Active |  |  | 
CC[C@@H](CO)NC(=O)[C@@H]1C=C2c3cccc4c3c(cn4C)C[C@H]2N(C)C1 [METHYSERGIDE] |  |  |  |  |  |  | Not Active | Not Active | Not Active | Not Active | Not Active | Not Active |  |  |  |  |  | 
CC(C)(C)NC[C@H](O)COc1nsnc1N1CCOCC1 [TIMOLOL] | Not Active | Not Active | Not Active | Not Active | Not Active | Not Active | Not Active | Not Active | Not Active | Not Active | Not Active | Not Active | Not Active | Not Active | Not Active |  |  | 
CCN(CC)CC#CCOC(=O)C(O)(c1ccccc1)C1CCCCC1 (stereo not drawn) [OXYBUTYNIN] |  |  |  |  |  |  | Not Active | Not Active | Not Active | Not Active | Not Active | Not Active |  |  |  |  |  | 
O=c1[nH]c2ccccc2n1CCCN1CCC(n2c(=O)[nH]c3cc(Cl)ccc32)CC1 [DOMPERIDONE] |  |  |  |  |  |  | Not Active |  |  | Not Active |  |  |  |  |  |  |  | 
CC1=C(CC(=O)O)c2cc(F)ccc2/C1=C\c1ccc(S(C)(=O)=O)cc1 [EXISULIND] | Not Active | Not Active | Not Active | Not Active | Not Active | Not Active | Not Active | Not Active | Not Active | Not Active | Not Active | Not Active | Not Active | Not Active | Not Active |  |  | 
COc1ncnc(NS(=O)(=O)c2ccc(N)cc2)c1OC [SULFADOXINE] | Not Active | Not Active | Not Active | Not Active | Not Active | Not Active | Not Active | Not Active | Not Active | Not Active | Not Active | Not Active | Not Active | Not Active | Not Active |  |  | 
CC(=O)Nc1nnc(S(N)(=O)=O)s1 [ACETAZOLAMIDE] |  |  |  |  |  |  | Not Active | Not Active | Not Active | Not Active | Not Active | Not Active |  |  |  |  |  | 
CO[C@H]1C[C@@H]2CC[C@@H](C)[C@@](O)(O2)C(=O)C(=O)N2CCCC[C@H]2C(=O)O[C@H]([C@H](C)C[C@@H]2CC[C@@H](O)[C@H](OC)C2)CC(=O)[C@H](C)/C=C(\C)[C@@H](O)[C@@H](OC)C(=O)[C@H](C)C[C@H](C)/C=C/C=C/C=C/1C [SIROLIMUS] | Not Active | Not Active | Not Active | Not Active | Not Active | Not Active | Not Active | Not Active | Not Active | Not Active | Not Active | Not Active | Not Active | Not Active | Not Active |  |  | 
OCCN1CCN(CCCN2c3ccccc3Sc3ccc(C(F)(F)F)cc32)CC1 [FLUPHENAZINE] |  |  |  |  |  |  | Not Active | Not Active | Not Active | Not Active |  |  |  |  |  |  |  | 
Cc1cn([C@H]2C[C@H](N=[N+]=[N-])[C@@H](CO)O2)c(=O)[nH]c1=O [ZIDOVUDINE] | Not Active | Not Active | Not Active | Not Active | Not Active | Not Active | Not Active | Not Active | Not Active | Not Active | Not Active | Not Active | Not Active | Not Active | Not Active |  |  | 
THIMEROSAL | Not Active | Not Active | Not Active | Not Active | Not Active | Not Active | Not Active | Not Active | Not Active | Not Active | 3000 nM |  | Not Active | Not Active | Not Active | Not Active | Not Active | Not Active
NC[C@H]1O[C@H](O[C@H]2[C@H](O)[C@@H](O[C@H]3O[C@H](CO)[C@@H](O)[C@H](N)[C@H]3O)[C@H](N)C[C@@H]2N)[C@H](N)C[C@@H]1O [TOBRAMYCIN] | Not Active | Not Active | Not Active | Not Active | Not Active | Not Active | Not Active | Not Active | Not Active | Not Active | Not Active | Not Active | Not Active | Not Active | Not Active |  |  | 
COc1cc(N)nc2[nH]c(-c3ccc(F)cc3)c(-c3ccncc3)c12 | Not Active | Not Active | Not Active | Not Active | Not Active | Not Active | Not Active | Not Active | Not Active | Not Active |  |  | Not Active | Not Active | Not Active |  |  | 
CN(CCOc1ccc(CC2SC(=O)NC2=O)cc1)c1ccccn1 (stereo not drawn) [ROSIGLITAZONE] | Not Active | Not Active | Not Active | Not Active | Not Active | Not Active | Not Active | Not Active | Not Active | Not Active |  |  | Not Active | Not Active | Not Active |  |  | 
O=c1n(CCCN2CCN(c3cccc(Cl)c3)CC2)nc2ccccn12 [TRAZODONE] |  |  |  |  |  |  | Not Active | Not Active | Not Active | Not Active | Not Active | Not Active |  |  |  |  |  | 
CCS(=O)(=O)CCn1c([N+](=O)[O-])cnc1C [TINIDAZOLE] | Not Active | Not Active | Not Active | Not Active | Not Active | Not Active | Not Active |  |  | Not Active |  |  | Not Active | Not Active | Not Active |  |  | 
CN1C2CCCC1CC(NC(=O)c1nn(C)c3ccccc13)C2 (stereo not drawn) [GRANISETRON] |  |  |  |  |  |  | Not Active | Not Active | Not Active | Not Active |  |  |  |  |  |  |  | 

From ChEMBL document CHEMBL1909046, “DrugMatrix in vitro pharmacology data”
